We go through three molecules from patent publication US20240026461A1, “BCL10 MUTATIONS AS BIOMARKERS FOR TARGETED THERAPY IN B CELL LYMPHOMAS” (priority 2022, published 2024).

Assay [1] has as its system BCL10^WT expressing ABC-DLBCL xenografts. Description: Xenograft, ibrutinib treatment, BCL10^WT tumors. Type of assay: in vivo, mice. Particulars: ibrutinib 37mpk, oral gavage, Q.D. An excerpt:
(§1) FIG. 6A-6K illustrate that BCL10 gain-of-function mutant lymphomas are resistant to upstream Bruton's tyrosine kinase (BTK) inhibitors. FIG. 6A illustrates growth inhibition assays of human diffuse large B-cell lymphoma (HBL1) cells and OCI-Ly10 lymphoma cells expressing wild type or mutant BCL10 protein in response to the BTK inhibitor Acalabrutinib. X axis, concentration of compound (M); Y axis, inhibition of cell growth normalized to vehicle treated cells. *p<0.05; **p<0.01; ****p<0.0001; ns, not significant. FIG. 6B illustrates growth inhibition assays of human diffuse large B-cell lymphoma (HBL1) cells and OCI-Ly10 lymphoma cells expressing wild type or mutant BCL10 protein in response to the BTK inhibitor Zanubrutinib. […] FIG. 6D illustrates luciferase activity measured in the MALT1 GloSensor reporter cell lines upon BTK inhibitor Acalabrutinib treatment. […] FIG. 6E illustrates luciferase activity measured in the MALT1 GloSensor reporter cell lines upon BTK inhibitor Zanubrutinib treatment. […] FIG. 6F illustrates luciferase activity measured in the MALT1 GloSensor reporter cell lines upon BTK inhibitor Ibrutinib treatment. […] AUC was calculated with Prism. FIG. 6J graphically illustrates tumor weight measured at the endpoint of tumors formed from xenografts of HBL1 cells expressing WT and mutant BCL10 (n=5-6/group). […]

Assay [2] deals with HBL1^E140X. Description: Growth inhibition assay (CellTiter Glo), HBL1 cells expressing BCL10 E140X. Type of assay: cell-based. To be noted: Homo sapiens, 96 h, read-out: IC50, growth inhibition, BTK inhibitors. The protocol:
(§2) DLBCL cell lines were cultured in exponential condition and the cell growth was determined by CellTiter Glo (Promega). 3000-5000 cells were seeded and cultured in each well of 384 well plate for 96 h and treated with compounds every 48 h. Luminescence was read at the endpoint with the Synergy NEO microplate reader (BioTek). The value of compound treated cells was normalized to their vehicle treated controls and then used to calculate IC50 in GraphPad Prism (RRID:SCR_002798).
(§3) Given the distinct functional profiles, CARD11 dependencies, and MALT1 activation effects of the BCL10 CARD and truncation mutants, the inventors designed experiments to evaluate whether, and to what extent, these mutant BCL10 proteins might confer BTK inhibitor resistance. Isogenic ABC-DLBCL cells expressing BCL10WT, BCL10^R58Q and BCL10^E140X proteins were treated with escalating doses of three chemically distinct covalent BTK inhibitors: ibrutinib, acalabrutinib, or zanubrutinib. The cellular proliferation rates of the treated cells were measured using an ATP fluorescence assay after 96 hours of drug exposure.
(§4) Isogenic BCL10^WT, BCL10^R58Q and BCL10^E140X ABC-DLBCLs were exposed to increasing concentrations of each of these compounds for 96 hours.
For orientation: In ATP-based viability assays light output follows the ATP content of the culture.

Assay [3] has as its system OCI-LY10^E140X. Description: Growth inhibition assay (CellTiter Glo), OCI-Ly10 cells expressing BCL10 E140X. The class given is cell-based. To be noted: Homo sapiens, 96 h, read-out: IC50, growth inhibition, BTK inhibitors. The procedure:
as §2, §3, §4

In assay [4] the test system is BCL10^E140X expressing ABC-DLBCL xenografts. Description: Xenograft, ibrutinib treatment, BCL10^E140X tumors. Type of assay: in vivo, mice. Particulars: ibrutinib 37mpk, oral gavage, Q.D.
Source text: as §1

Assay [5] relates to OCI-LY10^WT. The assay is described as follows: Growth inhibition assay (CellTiter Glo), OCI-Ly10 cells expressing BCL10 WT. Type of assay: cell-based. To be noted: Homo sapiens, 96 h, read-out: IC50, growth inhibition, BTK inhibitors. The protocol: as §2, §3, §4
For assay [6], the system named is HBL1^WT. The assay is described as follows: Growth inhibition assay (CellTiter Glo), HBL1 cells expressing BCL10 WT. Type of assay: cell-based. To be noted: Homo sapiens, 96 h, read-out: IC50, growth inhibition, BTK inhibitors. The protocol:
as §2, §3, §4

For assay [7], the system named is HBL1^R58Q. The assay is described as follows: Growth inhibition assay (CellTiter Glo), HBL1 cells expressing BCL10 R58Q. Type of assay: cell-based. To be noted: Homo sapiens, 96 h, read-out: IC50, growth inhibition, BTK inhibitors. The procedure:
as §2, §3, §4

Assay [8] has as its system OCI-LY10^R58Q. The assay is described as follows: Growth inhibition assay (CellTiter Glo), OCI-Ly10 cells expressing BCL10 R58Q. The class given is cell-based. Particulars: Homo sapiens, 96 h, read-out: IC50, growth inhibition, BTK inhibitors. The procedure: as §2, §3, §4
Assay [9] relates to BCL10^R58Q expressing ABC-DLBCL xenografts. The assay is described as follows: Xenograft, ibrutinib treatment, BCL10^R58Q tumors. Type of assay: in vivo, mice. Particulars: ibrutinib 37mpk, oral gavage, Q.D.
Source text: as §1

Assay [10] has as its target T1, MALT1 (of the lymphoma cell lysates, detected with anti-MALT1) (UniProt Q9UDY8 2-824, limits assumed).
T1 construct: Cellular MALT1 co-precipitated or co-fractionated with Flag-BCL10; HBL1 is called a human lymphoma line
T1 sequence (looked up): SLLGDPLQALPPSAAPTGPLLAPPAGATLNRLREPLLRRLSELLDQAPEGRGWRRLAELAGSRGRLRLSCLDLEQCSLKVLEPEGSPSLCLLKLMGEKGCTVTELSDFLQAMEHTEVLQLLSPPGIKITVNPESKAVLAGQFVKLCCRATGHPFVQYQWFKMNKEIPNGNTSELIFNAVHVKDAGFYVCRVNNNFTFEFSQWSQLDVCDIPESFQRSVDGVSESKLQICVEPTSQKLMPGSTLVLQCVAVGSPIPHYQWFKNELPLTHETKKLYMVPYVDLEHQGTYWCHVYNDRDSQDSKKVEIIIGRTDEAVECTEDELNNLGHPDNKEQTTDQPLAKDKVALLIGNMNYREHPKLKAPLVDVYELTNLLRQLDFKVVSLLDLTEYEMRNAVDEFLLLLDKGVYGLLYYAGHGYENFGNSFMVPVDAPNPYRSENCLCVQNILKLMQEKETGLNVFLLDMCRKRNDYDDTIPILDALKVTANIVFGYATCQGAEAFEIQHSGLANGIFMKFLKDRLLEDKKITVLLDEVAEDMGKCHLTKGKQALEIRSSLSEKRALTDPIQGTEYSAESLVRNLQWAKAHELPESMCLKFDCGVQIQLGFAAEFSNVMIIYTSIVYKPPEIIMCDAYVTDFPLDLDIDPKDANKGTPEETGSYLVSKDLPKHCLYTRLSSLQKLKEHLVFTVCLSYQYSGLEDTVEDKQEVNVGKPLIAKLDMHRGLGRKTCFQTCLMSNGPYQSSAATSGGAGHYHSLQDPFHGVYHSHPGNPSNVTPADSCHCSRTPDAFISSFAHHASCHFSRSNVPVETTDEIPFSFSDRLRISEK
Description: anti-Flag co-immunoprecipitation from Raji cells, anti-MALT1 blot. The protocol:
Lymphoma cells (10⁸) were collected, washed with cold PBS and resuspended with lysis buffer (1% NP40, 10% glycerol, 150 mM NaCl, 20 mM Tris-HCL pH 7.5, and freshly added protease inhibitors). The lysates were centrifuged at 15,000 g, 4° C. for 15 min and the supernatant was then collected and incubated with 50 μL equilibrated anti-Flag magnetic beads (Sigma-Aldrich Cat #M8823, RRID:AB_2637089) at 4° C. for 3 h. The beads were washed 3 times with lysis buffer and followed by 3 times washing with the lysis buffer without NP40. SDS loading buffer without […] reagent was added and boiled at 95° C. for 5 min. The elution was added for […] (final 10%), and ready to run western blot after boiling at 95° C. for 5 min.
To investigate how the truncation mutants might affect CBM complex formation, Flag-tagged wild type and mutant forms of BCL10 were expressed in Raji cells, which lack constitutive B-cell receptor (BCR) signaling. Anti-Flag co-immunoprecipitations were performed on cell lysates. […] In contrast, there was less binding of MALT1 to BCL10^E140X, as well as to the similar BCL10^{K146Nfs*2} truncation mutant (FIG. 4A).

The target of assay [11] is T2, MALT1 (Ig1-Ig2) (human, UniProt Q9UDY8 125-309).
T2 construct: domain: Ig1-Ig2; also called Ig1-Ig2 construct of MALT1; MALT1 (207-309)
T2 sequence (looked up): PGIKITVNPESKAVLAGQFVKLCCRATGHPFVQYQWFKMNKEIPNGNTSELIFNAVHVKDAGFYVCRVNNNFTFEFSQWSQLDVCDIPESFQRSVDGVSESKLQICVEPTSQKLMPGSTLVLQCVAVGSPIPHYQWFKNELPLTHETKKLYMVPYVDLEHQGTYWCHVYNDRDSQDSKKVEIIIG
Description: His pull-down after co-expression in E. coli, Coomassie-stained SDS-PAGE. The protocol: The inventors designed experiments to determine whether there were additional MALT1-binding sites on BCL10 at its largely unstructured C-terminus. The C-terminal region was divided into two halves and MALT1 pull-down studies were performed. […] Of note, unlike the interaction between BCL10 CARD and MALT1 death domain (DD) in the filamentous form, the interaction between BCL10 C-terminal region and MALT1 Ig1-Ig2 is monomeric as assessed by gel filtration chromatography of the complex.

Broadly, the IC50 is the midpoint of a concentration-inhibition curve. Consider `C=CC(=O)N1CCC[C@@H](n2nc(-c3ccc(Oc4ccccc4)cc3)c3c(N)ncnc32)C1` [Ibrutinib], for which the “tumor growth of xenografts” value in assay [1] is reported as “suppressed growth”; in assay [1] (listed as ibrutinib), “expected growth suppression”; in assay [4] it was “no significant anti-tumor effect”; in [9], “no significant anti-tumor effect”. Moreover, the IC50 was determined as 11 nM in [2]; 3.3 nM in assay [3]; 0.66 nM in assay [5]; 4 nM in assay [6]; 6.1 nM in [7]; 2.2 nM in [8].

B1: Flag-BCL10^E140X (other)
chain: MEPTAPSLTEEDLTEVKKDALENLRVYLCEKIIAERHFDHLRAKKILSREDTEEISCRTSSRKRAGKLLDYLQENPKGLDTLVESIRREKTQNFLIQKITDEVLKLRNIKLEHLKGLKCSSCEPFPDGATNNLSRSNSD
notes: Range 1-139 follows from the name E140X (stop codon at position 140); Expressed in Raji and HBL1 cells; also called Flag tagged E140X; truncating mutant at position 140; not shown: Flag tag
Turning to B1, the binding result in assay [10] is listed as “binds”.

B2: His-tagged BCL10 (116-164) (other)
chain: GLKCSSCEPFPDGATNNLSRSNSDESNFSEKLRASTVMYHPEGESSTTP
notes: Co-expressed with MALT1 Ig1-Ig2 in E. coli; not shown: His tag
On to B2, for which the binding result in assay [11] was “no binding”.
